Experimental data reported in patent US20080221088A1, “3,4-Substituted Thiazoles as Ampk Activators” (priority 2005, published 2008).

What was measured:
AMPK [1] = test: AMPK activation potential, cell based ELISA with p-AMPK specific antibody, L6 muscle cells; conditions: 24 hours incubation, normalized to metformin at 2 mM as 100%
Method: (§1) AMPK activation potential percentages are obtained by normalizing the values obtained at the concentrations in the range of 2 nM-10 μM with that of metformin by considering the values obtained for metformin at 2 mM concentrations as 100%.
(§2) AMPK activation potential of the compounds of formula (I) was evaluated using a cell based ELISA approach. Skeletal muscle (L6 muscle) and hepatoma (Hep G2) liver cells were cultured for 48 hours prior to drug addition at various concentrations. Twenty four (24) hours later, the cells were fixed and the ELISA plate developed following standard protocol using p-AMPK specific antibody.
(§3) Various cell lines such as HepG2 and L6 were revived from glycerol stocks (ATCC). The cells were maintained in a T 75 culture flask-containing medium (DMEM+10% fetal calf serum). On reaching a confluence of 70 to 80%, the cells was seeded in a 96 well plate at a density of 10×10^3 cells per well in DMEM+10% FCS medium. The plates are then incubated at 37° C. with 5% CO2 for 48 hours. Various concentrations of drugs were prepared in DMSO and diluted to required concentration with the medium and incubated at 37° C. with 5% CO2 for 24 hours. Cells were fixed with 4% formaldehyde in PBS for 30 minutes at 25-35° C. and washed three times with PBS containing 0.1% Triton X-100. Endogenous peroxidase was quenched with 0.6% H2O2 in PBS-T for 30 minutes and washed three times in PBS-T. Then the cells were blocked with 10% FCS in PBS-T for 1 hour. The cells were incubated for 8-12 hours with various concentrations of primary antibody in PBS-T containing 5% BSA at 4° C. The cells were then washed three times with PBS-T for 5 minutes and incubated with secondary antibody (HRP conjugated 1:500 in PBS-T with 5% BSA for 1 hour at 25-35° C. The cells were washed three times with PBS-T for 5 minutes and twice with PBS. The cells were incubated with 100 μl TMB/H2O2 color developing solution for 15 minutes and the reaction was stopped with 50 μl of 1M H2SO4. Then the plate was read at 460 nm using ELISA plate reader.
(§4) (AMPK activation potential percentages are obtained by normalizing the values obtained at 10 μM concentration with that of metformin by considering the values obtained for metformin at 2 mM concentrations as 100%).

AMPK [2] = test: AMPK activation potential, cell based ELISA with p-AMPK specific antibody, Hep G2 cells; conditions: HepG-2 cells, 24 hours incubation, normalized to metformin at 2 mM as 100%
Method: as §1, §2, §3, §4

melting point [°C] | Compound | AMPK % activation (at 10 μM) L6 muscle cells (AMPK [1]) [%] | AMPK % activation (at 10 μM) HepG-2 muscle cells (AMPK [2]) [%]
191 to 192 | O=C(Cc1csc(Nc2ccc(Cl)c(C(F)(F)F)c2)n1)Nc1cccnc1 [Example 4-h, 2-[2-(4-Chloro-3-trifluoromethyl-phenylamino)-thiazol-4-yl]-N-pyridin-3-yl-acetamide] | – | –
196 to 198 | O=C(Cc1csc(Nc2ccc(Cl)c(C(F)(F)F)c2)n1)Nc1nccs1 [Example 4-g, 2-[2-(4-Chloro-3-trifluoromethyl-phenylamino)-thiazol-4-yl]-N-thiazol-2-yl-acetamide] | – | –
178 to 180 | O=C(Cc1csc(Nc2ccc(Cl)c(C(F)(F)F)c2)n1)Nc1ccncc1 [Example 4-d, 2-[2-(4-Chloro-3-trifluoromethyl-phenylamino)-thiazol-4-yl]-N-pyridin-4-yl-acetamide] | – | –
115 to 118 | NNC(=O)Cc1csc(Nc2ccc(Cl)c(C(F)(F)F)c2)n1 [Example 3-b, [2-(4-Chloro-3-trifluoromethyl-phenylamino)-thiazol-4-yl]-acetic acid hydrazide] | – | –
151 to 152 | CSc1ccc(NC(=O)Cc2csc(Nc3ccc(Cl)c(C(F)(F)F)c3)n2)cc1 [Example 4-e, 2-[2-(4-Chloro-3-trifluoromethyl-phenylamino)-thiazol-4-yl]-N-(4-methylsulfanyl-phenyl)-acetamide] | – | –
179 to 180 | COc1ccc(NC(=O)Cc2csc(Nc3ccc(Cl)c(C(F)(F)F)c3)n2)cc1 [Example 4-a, 2-[2-(4-Chloro-3-trifluoromethyl-phenylamino)-thiazol-4-yl]-N-(4-methoxy-phenyl)-acetamide] | – | –
148 to 150 | CNC(=O)Cc1csc(Nc2ccc(Cl)c(C(F)(F)F)c2)n1 [Example 3, 2-[2-(4-Chloro-3-trifluoromethyl-phenylamino)-thiazol-4-yl]-N-methyl-acetamide] | 101.20 | 102.14
262 to 263 | CC(=O)Nc1ccc(NC(=O)Cc2csc(Nc3ccc(Cl)c(C(F)(F)F)c3)n2)cc1 [Example 4-f, N-(4-Acetylamino-phenyl)-2-[2-(4-chloro-3-trifluoromethyl-phenylamino)-thiazol-4-yl]-acetamide] | – | –
108 to 112 | O=C(Cc1csc(Nc2ccc(Cl)c(C(F)(F)F)c2)n1)Nc1ccc(Cl)c(C(F)(F)F)c1 [Example 4, N-(4-Chloro-3-trifluoromethyl-phenyl)-2-[2-(4-chloro-3-trifluoromethyl-phenylamino)-thiazol-4-yl]-acetamide] | – | –
205 to 207 | NC(=O)Cc1csc(Nc2ccc(Cl)c(C(F)(F)F)c2)n1 [Example 3c, 2-[2-(4-Chloro-3-trifluoromethyl-phenylamino)-thiazol-4-yl]-acetamide] | 88.1 | 102.43
194 to 195 | CC(=O)c1ccc(NC(=O)Cc2csc(Nc3ccc(Cl)c(C(F)(F)F)c3)n2)cc1 [Example 4-b, N-(4-Acetyl-phenyl)-2-[2-(4-chloro-3-trifluoromethyl-phenylamino)-thiazol-4-yl]-acetamide] | – | –
146 to 148 | O=C(Cc1csc(Nc2ccc(Cl)c(C(F)(F)F)c2)n1)Nc1ccc(F)cc1 [Example 4-c, 2-[2-(4-Chloro-3-trifluoromethyl-phenylamino)-thiazol-4-yl]-N-(4-fluoro-phenyl)-acetamide] | – | –

The next lines start with the molecule.

Compound | melting point [°C] | AMPK % activation (at 10 μM) L6 muscle cells (AMPK [1]) [%] | AMPK % activation (at 10 μM) HepG-2 muscle cells (AMPK [2]) [%]
O=C(O)Cc1csc(Nc2ccc(Br)c(C(F)(F)F)c2)n1 [Example 2a, [2-(4-Bromo-3-trifluoromethyl-phenylamino)-thiazol-4-yl]-acetic acid] | – | 83.4 | 91.3
CCOC(=O)Cc1csc(Nc2ccc(Br)c(C(F)(F)F)c2)n1 [Example 1-a, [2-(4-Bromo-3-trifluoromethyl-phenylamino)-thiazol-4-yl]-acetic acid ethyl ester] | 161 to 164 | – | –
CCOC(=O)Cc1csc(Nc2ccc(Cl)c(C(F)(F)F)c2)n1 [Example 1, [2-(4-Chloro-3-trifluoromethyl-phenylamino)-thiazol-4-yl]-acetic acid ethyl ester] | 150 to 152 | 88.2 | 89
O=C(O)c1csc(Nc2ccc(Cl)c(C(F)(F)F)c2)n1 [Example 5, 2-(4-Chloro-3-trifluoromethyl-phenylamino)-thiazole-4-carboxylic acid] | 254 to 256 | – | –
COc1ccc(CNC(=O)Cc2csc(Nc3ccc(Cl)c(C(F)(F)F)c3)n2)cc1 [Example 4-k, 2-[2-(4-Chloro-3-trifluoromethyl-phenylamino)-thiazol-4-yl]-N-(4-methoxy-benzyl)-acetamide] | 65 to 70 | – | –
Cc1ccc(Nc2nc(CC(=O)O)cs2)cc1F [Example 2-e, [2-(3-Fluoro-4-methyl-phenylamino)-thiazol-4-yl]-acetic acid] | 147 to 148 | – | –
O=C(Cc1csc(Nc2ccc(Cl)c(C(F)(F)F)c2)n1)N1CCSCC1 [Example 4-j, 2-[2-(4-Chloro-3-trifluoromethyl-phenylamino)-thiazol-4-yl]-1-thiomorpholin-4-yl-ethanone] | 185 to 187 | – | –
O=C(Cc1csc(Nc2ccc(Cl)c(C(F)(F)F)c2)n1)N1CCOCC1 [Example 4-i, 2-[2-(4-Chloro-3-trifluoromethyl-phenylamino)-thiazol-4-yl]-1-morpholin-4-yl-ethanone] | 210 to 211 | – | –
O=C(O)Cc1csc(Nc2ccc(F)c(C(F)(F)F)c2)n1 [Example 2-h, [2-(4-Fluoro-3-trifluoromethyl-phenylamino)-thiazol-4-yl]-acetic acid] | 167 to 169 | – | –
O=C(O)Cc1csc(Nc2ccc(Br)c(F)c2)n1 [Example 2-g, [2-(4-Bromo-3-fluoro-phenylamino)-thiazol-4-yl]-acetic acid] | 176 to 177 | – | –
O=C(O)Cc1csc(Nc2ccc(Cl)c(C(F)(F)F)c2)n1 [Example 2, [2-(4-Chloro-3-trifluoromethyl-phenylamino)-thiazol-4-yl]-acetic acid] | – | 91.56 | 102.69
Cc1ccc(Nc2nc(CC(=O)O)cs2)cc1C(F)(F)F [Example 2-i, [2-(4-Methyl-3-trifluoromethyl-phenylamino)-thiazol-4-yl]-acetic acid] | 154 to 155 | – | –
Cc1ccc(Nc2nc(CC(=O)O)cs2)cc1Cl [Example 2-b, [2-(3-Chloro-4-methyl-phenylamino)-thiazol-4-yl]-acetic acid] | 142 to 144 | – | –
CC(C)(CC(=O)O)c1csc(Nc2ccc(Cl)c(C(F)(F)F)c2)n1 [Example 2-j, 3-[2-(4-Chloro-3-trifluoromethyl-phenylamino)-thiazol-4-yl]-3-methyl-butyricacid] | 160 to 165 | – | –
